Key:
[1] = target: T1, human PR (progesterone receptor) (Homo sapiens, UniProt P06401); assay: Nuclear hormone receptor competition binding assay, PR; conditions: HEK293 lysate overexpressing human PR, [3H]-methyltrienolone; mean of n=7
T1 construct: expressed in transfected cells; host or cells: HEK293 (293-PR lysate)
T1 sequence (P06401 1-933): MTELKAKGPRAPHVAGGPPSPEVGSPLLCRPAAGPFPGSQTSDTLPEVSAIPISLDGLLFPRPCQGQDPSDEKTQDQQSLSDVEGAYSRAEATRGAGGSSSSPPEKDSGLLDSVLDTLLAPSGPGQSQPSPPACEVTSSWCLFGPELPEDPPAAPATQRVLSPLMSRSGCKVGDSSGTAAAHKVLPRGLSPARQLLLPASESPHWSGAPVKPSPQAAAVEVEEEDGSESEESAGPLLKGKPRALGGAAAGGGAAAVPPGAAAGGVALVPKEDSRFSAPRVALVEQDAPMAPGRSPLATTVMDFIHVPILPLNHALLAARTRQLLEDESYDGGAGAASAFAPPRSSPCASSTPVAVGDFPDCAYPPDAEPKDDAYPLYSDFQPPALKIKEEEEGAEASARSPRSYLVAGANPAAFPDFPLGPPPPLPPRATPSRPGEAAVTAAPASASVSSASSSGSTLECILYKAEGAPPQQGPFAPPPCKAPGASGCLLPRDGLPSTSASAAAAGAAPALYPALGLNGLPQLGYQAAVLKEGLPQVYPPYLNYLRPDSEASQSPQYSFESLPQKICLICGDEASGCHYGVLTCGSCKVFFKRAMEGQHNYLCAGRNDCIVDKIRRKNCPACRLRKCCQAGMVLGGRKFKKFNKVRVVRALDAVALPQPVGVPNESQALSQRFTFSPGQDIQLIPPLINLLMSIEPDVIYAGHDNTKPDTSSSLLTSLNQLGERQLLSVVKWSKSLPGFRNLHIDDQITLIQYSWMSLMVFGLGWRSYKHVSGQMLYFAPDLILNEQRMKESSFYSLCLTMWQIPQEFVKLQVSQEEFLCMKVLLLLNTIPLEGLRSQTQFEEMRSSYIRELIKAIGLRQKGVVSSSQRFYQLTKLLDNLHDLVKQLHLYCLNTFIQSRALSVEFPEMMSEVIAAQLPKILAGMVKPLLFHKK
Procedure: Cell lysates from human embryonic kidney HEK293 cells overexpressing human GR (glucocorticoid receptor), AR (androgen receptor), MR (mineralocorticoid receptor), or PR (progesterone receptor) are used for receptor-ligand competition binding assays to determine Ki values.
Briefly, steroid receptor competition binding assays are run in a buffer containing 20 mM Hepes buffer (pH=7.6), 0.2 mM EDTA, 75 mM NaCl, 1.5 mM MgCl2, 20% glycerol, 20 mM sodium molybdate, 0.2 mM DTT (dithiothreitol), 20 μg/ml aprotinin and 20 μg/ml leupeptin. Typically, steroid receptor binding assays include radio-labeled ligands, such as 0.3 nM [^3H]-dexamethasone for GR binding, 0.36 nM [^3H]-methyltrienolone for AR binding, 0.25 nM [^3H]-aldosterone for MR binding, and 0.29 nM [^3H]-methyltrienolone for PR binding, and either 20 μg 293-GR lysate, 22 μg 293-AR lysate, 20 μg 293-MR lysate or 40 μg 293-PR lysate per well. Assays are typically run in 96-well format. Competing test compounds are added at various concentrations ranging from about 0.01 nM to 10 μM. Non-specific binding is determined in the presence of 500 nM dexamethasone for GR binding, 500 nM aldosterone for MR binding, or 500 nM methyltrienolone for AR and PR binding. […] After an incubation of 2 hours, plates are read in a Wallac Microbeta counter. […]

[2] = test system: TNF-α production in PMA-differentiated U937 cells; assay: GR-mediated transrepression: LPS-stimulated TNF-α production in PMA-differentiated U937 cells; assay type: cell-based, human
Procedure: 2. LPS-Stimulated TNF-α Production in PMA-Differentiated U937 Cells:
Human U937 pre-monocytic cells, obtained from ATCC, are grown in complete RPMI 1640 medium containing 10% FBS. To allow monocytes to differentiate to adherent macrophages, U937 cells are washed in calcium, magnesium free and resuspended in fresh RPMI medium containing 20 nM phorbol 12-myristate-13-acetate (PMA) overnight. After differentiation, test compounds are added to the cells in the 96-well plate at various concentrations ranging from about 4.65 pM to 4.64 μM. 1-hour post treatment with test compound, LPS is added at final concentration of 100 ng/ml and the reaction mixture is incubated overnight. 25 μl cell-free supernatant is transferred from each well to another 96-well plate and TNF-α production is measured using an ELISA kit with TNF-α being quantified by reading absorbance at 450 nm.

Ki [1]: ~32 nM
IC50 ([2]; Homo sapiens, U-937, LPS 100 ng/ml, average of n=4, read-out: IC50, inhibition of TNF-α expression): ~21 nM
Structure (SMILES): CC/C(=C1\c2ccc(F)cc2OCc2ncccc21)c1cccc(NS(C)(=O)=O)c1 [Compound (I), (E)-N-{3-[1-(8-Fluoro-11H-10-oxa-1-aza-dibenzo[a,d]cyclohepten-5-ylidene)-propyl]-phenyl}-methanesulfonamide]
maximal inhibition of the endogenous expression of TNF-α ([2]; LPS 100 ng/ml, n=4): ≥ 90%
